In ChEMBL document CHEMBL1124537, “The importance of the orientation of the C9 substituent to cannabinoid activity” (J Med Chem, 1989):
Active and inactive are the calls of the source. The calls are words filed in the database; no cut-off is given here.

Tests used:
Assay type in all cases: functional, organism-based
Conditions in all cases: Cercopithecidae
Monkey [1] = assay: Compound was tested for activity in rhesus monkey behavioral test; Minimal activity
Monkey [2] = assay: Compound was tested for activity in rhesus monkey behavioral test; Active
Monkey [3] = assay: Compound was tested for activity in rhesus monkey behavioral test; Inactive

| SMILES | Activity (Monkey [2]) | Activity (Monkey [3]) | other results |
| --- | --- | --- | --- |
| CCCCCc1cc(O)c2c(c1)OC(C)(C)C1CC[C@@H](C)CC21 (stereo partly specified) | – | – | Activity (Monkey [1]): Minimal activity |
| CCCCCc1cc(O)c2c(c1)OC(C)(C)[C@@H]1CC=C(C)C[C@@H]21 | Active | – | – |
| CCCCCc1cc(O)c2c(c1)OC(C)(C)[C@@H]1CCC(C)=C[C@@H]21 | Active | – | – |
| CCCCCc1cc(O)c2c(c1)OC(C)(C)C1C=C[C@H](C)CC21 (stereo partly specified) | – | inactive | – |
| C=C1CCC2C(C1)c1c(O)cc(CCCCC)cc1OC2(C)C (stereo unspecified) | – | inactive | – |
| CCCCCc1cc(O)c2c(c1)OC(C)(C)C1CC[C@H](C)CC21 (stereo partly specified) | Active | – | – |
